Results published in patent US8513271B2, “Pyrimidine compounds as delta opioid receptor modulators” (Janssen Pharmaceutica, NV, priority 2009, dated 2013).
Where two headings read alike, the source gives them in different places.

What was measured:
[1] = target: T1, delta opioid receptor (Mus musculus, UniProt P32300); assay: NG108-15, 24-well delta opioid receptor binding assay
T1 construct: NG108-15 cell membranes were purchased from Applied Cell Sciences (Rockville, Md.); host or cells: NG108-15 cell membranes
T1 sequence (P32300 whole entry): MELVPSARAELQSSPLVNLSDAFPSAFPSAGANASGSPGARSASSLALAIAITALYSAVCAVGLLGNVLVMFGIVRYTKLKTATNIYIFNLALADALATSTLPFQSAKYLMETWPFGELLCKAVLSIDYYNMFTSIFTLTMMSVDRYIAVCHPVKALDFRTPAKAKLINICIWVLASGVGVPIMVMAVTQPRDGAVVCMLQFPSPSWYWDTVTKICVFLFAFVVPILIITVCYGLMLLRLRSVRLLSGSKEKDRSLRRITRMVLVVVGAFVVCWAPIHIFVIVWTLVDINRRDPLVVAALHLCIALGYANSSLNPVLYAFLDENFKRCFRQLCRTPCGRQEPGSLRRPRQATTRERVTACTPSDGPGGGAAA

[2] = target: T2, delta opioid receptor (Rattus norvegicus, UniProt P33533); assay: Rat brain delta opioid receptor binding assay; details: rat forebrain, [3H]naltrindole ligand; read-out: δ-binding (Naltrindole ligand) Ki
T2 construct: the forebrains were homogenized in Tris buffer in a Teflon®-glass homogenizer; from tissue; host or cells: forebrain of male Wistar rats, particulate (membrane) preparation
T2 sequence (P33533 whole entry): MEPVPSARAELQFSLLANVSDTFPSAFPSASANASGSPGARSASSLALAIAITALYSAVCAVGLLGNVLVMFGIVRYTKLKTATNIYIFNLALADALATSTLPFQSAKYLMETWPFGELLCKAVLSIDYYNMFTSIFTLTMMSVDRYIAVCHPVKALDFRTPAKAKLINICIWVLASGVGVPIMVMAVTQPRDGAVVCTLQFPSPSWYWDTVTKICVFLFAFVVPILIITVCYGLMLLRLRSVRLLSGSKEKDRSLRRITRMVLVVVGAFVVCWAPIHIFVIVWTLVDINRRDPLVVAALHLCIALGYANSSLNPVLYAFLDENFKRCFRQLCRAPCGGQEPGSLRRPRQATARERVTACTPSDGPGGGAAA

[3] = target: T1, delta opioid receptor; assay: [35S]GTPγS binding assay in NG108-15 cell membranes (delta opioid functional assay), 200 nM screen; type: biochemical; details: for GTPγS δ-RelEfficacy @200 nM: 200 nM test compound, relative to calculated max of SNC80 dose response curve; for GTPγS δ-RelEfficacy @200 nM / EC50 / GTPγS δ-opioid receptor Rel Efficacy: NG108-15 cell membranes; for GTPγS δ-RelEfficacy @200 nM / EC50: averages if tested more than once; for GTPγS δ-opioid receptor Rel Efficacy: relative efficacy from dose response
[4] = target: hMOR (mu opioid receptor) (Homo sapiens, UniProt P35372); assay: [35S]GTPγS binding assays in CHO-hMOR cell membranes (mu opioid functional assay); type: biochemical; details: for inhibition at 10 µM: read-out: GTPγS μ-opioid receptor % Inh @10 μM; for GTPγS μ-opioid receptor % Inh @10 μM: inhibition of agonist-stimulated GTPγS binding
hMOR (mu opioid receptor), sequence (P35372 whole entry, looked up): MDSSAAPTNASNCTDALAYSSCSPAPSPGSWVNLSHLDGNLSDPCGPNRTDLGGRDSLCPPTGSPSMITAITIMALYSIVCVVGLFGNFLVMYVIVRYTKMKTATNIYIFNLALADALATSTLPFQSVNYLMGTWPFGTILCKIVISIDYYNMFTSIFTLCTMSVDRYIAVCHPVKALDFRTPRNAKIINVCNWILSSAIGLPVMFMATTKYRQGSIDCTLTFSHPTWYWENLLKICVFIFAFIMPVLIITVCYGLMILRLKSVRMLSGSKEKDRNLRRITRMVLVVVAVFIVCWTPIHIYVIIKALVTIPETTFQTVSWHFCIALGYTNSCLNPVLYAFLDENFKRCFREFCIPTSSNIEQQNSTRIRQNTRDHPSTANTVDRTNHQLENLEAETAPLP

[5] = target: T3, mu opioid receptor (Rattus norvegicus, UniProt P33535); assay: Rat brain mu opioid receptor binding assay; details: rat forebrain, [3H]DAMGO ligand
T3 construct: the forebrains were homogenized in Tris buffer in a Teflon®-glass homogenizer; from tissue; host or cells: forebrain of male Wistar rats, particulate (membrane) preparation
T3 sequence (P33535 whole entry): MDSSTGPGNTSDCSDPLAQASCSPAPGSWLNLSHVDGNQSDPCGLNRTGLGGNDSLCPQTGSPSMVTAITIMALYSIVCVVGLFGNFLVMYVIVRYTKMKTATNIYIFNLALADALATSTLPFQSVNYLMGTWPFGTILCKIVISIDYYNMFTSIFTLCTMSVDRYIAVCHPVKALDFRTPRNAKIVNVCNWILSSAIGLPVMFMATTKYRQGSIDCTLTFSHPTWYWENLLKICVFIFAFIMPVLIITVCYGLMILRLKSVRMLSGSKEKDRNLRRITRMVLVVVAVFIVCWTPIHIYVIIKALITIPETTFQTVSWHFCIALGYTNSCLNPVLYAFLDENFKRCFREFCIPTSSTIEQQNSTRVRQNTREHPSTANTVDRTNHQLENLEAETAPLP

[6] = [3H]Naltrindole ligand, NG108-15 cell membranes, read-out: δ-binding NG108 cell membrane Ki
[7] = GTPγS δ-opioid receptor EC50 (μM)
[8] = read-out: GTPγS δ-opioid receptor EC50

Ki [1, 6] | EC50 [3, 8] | SMILES | GTPγS δ-RelEfficacy @200 nM [3] | GTPγS δ-opioid receptor Rel Efficacy [3] | further results
– | – | COc1ccc(Oc2nc(-c3cncc(C#N)c3)ncc2N2CCNC(C)C2)cc1 (racemic) [Cpd 343] | 0.985 | 1.105 | EC50 [3, 7]: 0.001 µM; EC50 [4]: 1980 nM; inhibition at 10 µM [4]: 7.29%
1.54 nM | 0.433 µM | COc1ccc(-c2ncc(NC[C@@H]3CCCN3)c(Oc3ccc(O)cc3)n2)cn1 [Cpd 59] | – | 1.0063 | Ki [2]: 0.954 nM; Ki ([5]; read-out: μ-binding Ki): 1610 nM; inhibition at 10 µM ([3]; read-out: GTPγS δ-opioid receptor % Inh @10 μM): 1.48%
– | – | Fc1cncc(-c2ncc(NC[C@@H]3CCCN3)c(Oc3ccc(OCC(F)(F)F)cc3)n2)c1 [Cpd 124] | – | – | Ki [1]: 0.3 nM; Ki [2]: 126 nM
7 nM | 9 µM | N#Cc1ccc(Oc2nc(-c3cccnc3)ncc2NC[C@@H]2CCCN2)cc1 [Cpd 136] | – | 0.789 | –
9 nM | > 10 µM | N#Cc1ccc(Oc2nc(-c3cccnc3)ncc2NC[C@@H]2CCCN2)cc1F [Cpd 137] | – | – | –
2 nM | 2.27 µM | CC(C)Oc1ccc(Oc2nc(-c3cncc(C#N)c3)ncc2NC[C@@H]2CCCN2)cc1 [Cpd 139] | – | 1.118 | –
8 nM | – | CC(C)Oc1ccc(Oc2nc(-c3cncnc3)ncc2NC[C@@H]2CCCN2)cc1 [Cpd 140] | 0.137 | – | –
3 nM | – | CC(C)Oc1ccc(Oc2nc(-c3cccnc3)ncc2NC[C@@H]2CCCN2)cc1 [Cpd 141] | 0.149 | – | –
1 nM | 0.69 µM | N#Cc1cncc(-c2ncc(NC[C@@H]3CCCN3)c(Oc3ccc(CO)cc3)n2)c1 [Cpd 143] | – | 1.066 | –
– | – | OCc1ccc(Oc2nc(-c3cncnc3)ncc2NC[C@@H]2CCCN2)cc1 [Cpd 144] | 0.191 | – | Ki [1]: 7 nM
5 nM | 4.02 µM | OCc1ccc(Oc2nc(-c3cccnc3)ncc2NC[C@@H]2CCCN2)cc1 [Cpd 145] | – | 1.180 | –
0.4 nM | 0.387 µM | N#Cc1cncc(-c2ncc(NC[C@@H]3CCCN3)c(Oc3ccc(F)cc3)n2)c1 [Cpd 146] | – | 1.197 | –
– | – | Cc1ccc(Oc2nc(-c3cncc(C#N)c3)ncc2NC[C@@H]2CCCN2)cc1 [Cpd 147] | – | 1.077 | Ki [1]: 0.4 nM; Ki ([5]; μ-binding Ki): 438 nM; EC50 [3, 7]: 0.051 µM
1 nM | 0.158 µM | Cc1ccc(Oc2nc(-c3cncnc3)ncc2NC[C@@H]2CCCN2)cc1 [Cpd 148] | 0.411 | 1.052 | –
1 nM | 0.236 µM | Cc1ccc(Oc2nc(-c3cccnc3)ncc2NC[C@@H]2CCCN2)cc1 [Cpd 149] | 0.403 | 1.026 | –
– | – | CSc1ccc(Oc2nc(-c3cncc(C#N)c3)ncc2NC[C@@H]2CCCN2)cc1 [Cpd 150] | 0.801 | 1.093 | Ki [1]: 0.3 nM; EC50 [3, 7]: 0.033 µM
1 nM | 0.119 µM | CSc1ccc(Oc2nc(-c3cncnc3)ncc2NC[C@@H]2CCCN2)cc1 [Cpd 151] | 0.704 | 1.121 | –
0.4 nM | 0.07 µM | CSc1ccc(Oc2nc(-c3cccnc3)ncc2NC[C@@H]2CCCN2)cc1 [Cpd 152] | 0.607 | 1.083 | –
1 nM | 0.193 µM | COCc1ccc(Oc2nc(-c3cncc(C#N)c3)ncc2NC[C@@H]2CCCN2)cc1 [Cpd 153] | 0.454 | 1.120 | –
– | – | COCc1ccc(Oc2nc(-c3cncnc3)ncc2NC[C@@H]2CCCN2)cc1 [Cpd 154] | 0.164 | – | Ki [1]: 9 nM

Ki [1, 6] | EC50 [3, 8] | SMILES | GTPγS δ-RelEfficacy @200 nM [3] | GTPγS δ-opioid receptor Rel Efficacy [3] | further results
– | – | COCc1ccc(Oc2nc(-c3cccnc3)ncc2NC[C@@H]2CCCN2)cc1 [Cpd 155] | 0.170 | – | Ki [1]: 5 nM
40 nM | – | CCN(CC)C(=O)c1cccc(Oc2nc(-c3cccnc3)ncc2NC[C@@H]2CCCN2)c1 [Cpd 157] | 0.213 | – | –
– | – | O=C(c1cccc(Oc2nc(-c3cccnc3)ncc2NC[C@@H]2CCCN2)c1)N1CCCC1 [Cpd 166] | 0.169 | – | Ki [1]: 27 nM
21 nM | – | O=C(c1cccc(Oc2nc(-c3cccnc3)ncc2NC[C@@H]2CCCN2)c1)N1CCCCC1 [Cpd 167] | 0.328 | – | –
50 nM | – | O=C(c1cccc(Oc2nc(-c3cccnc3)ncc2NC[C@@H]2CCCN2)c1)N1CCOCC1 [Cpd 168] | 0.300 | – | –
– | – | COc1ccc(Oc2nc(-c3cncc(SC)c3)ncc2NC[C@@H]2C[C@@H](F)CN2)cc1 [Cpd 234] | 0.847 | 0.987 | EC50 [3, 7]: 0.034 µM; inhibition at 10 µM [4]: 7.29%
– | – | COc1ccc(Oc2nc(-c3cccnc3)ncc2N[C@H]2CCCNC2)cc1 [Cpd 236] | 1.026 | 1.042 | EC50 [3, 7]: 0.017 µM; inhibition at 10 µM [4]: 6.2%
– | – | COc1ccc(Oc2nc(-c3cccnc3)ncc2N[C@H]2CCNC2)cc1 [Cpd 237] | – | – | GTPγS μ-opioid receptor % Inh @10 μM ([4]; CHO-hMOR cell membranes): 3.524%
– | – | COc1ccc(Oc2nc(-c3cncc(OC)c3)ncc2N[C@H]2CCCNC2)cc1 [Cpd 245] | – | 1.095 | EC50 [3, 7]: 0.0127 µM; inhibition at 10 µM [4]: 4.26%
– | – | COc1ccc(Oc2nc(-c3cncc(SC)c3)ncc2N[C@H]2CCCNC2)cc1 [Cpd 252] | – | 1.007 | EC50 [3, 7]: 0.025 µM; inhibition at 10 µM [4]: 2.48%
– | – | COc1ccc(Oc2nc(-c3cncc(SC)c3)ncc2N[C@H]2CCNC2)cc1 [Cpd 255] | – | 0.997 | EC50 [3, 7]: 0.0464 µM; inhibition at 10 µM [4]: 17.1%
– | – | COc1ccc(Oc2nc(-c3cncc(OC)c3)ncc2N[C@H]2CCNC2)cc1 [Cpd 256] | – | 1.004 | EC50 [3, 7]: 0.034 µM; inhibition at 10 µM [4]: 6.2%
6 nM | > 10 µM | COc1ccc(Oc2nc(-c3cncc(C#N)c3)ncc2NC[C@@H](N)CC(C)C)cc1 [Cpd 294] | – | – | –
– | – | COc1ccc(Oc2nc(-c3cncc(C#N)c3)ncc2NC[C@H]2C[C@H](N)C2)cc1 [Cpd 301] | – | 1.085 | Ki [1]: 0.5 nM; Ki ([5]; μ-binding Ki): 658 nM; EC50 [3, 7]: 0.087 µM
1 nM | – | COc1ccc(Oc2nc(-c3cncnc3)ncc2NC[C@H]2C[C@H](N)C2)cc1 [Cpd 302] | 0.393 | – | –
– | – | COc1ccc(Oc2nc(-c3cncnc3)ncc2NC2CC(N)C2)cc1 (centres unmarked) [Cpd 304] | 0.228 | – | Ki [1]: 2 nM
– | – | COc1ccc(Oc2nc(-c3cncc(SC)c3)ncc2N2CCNCC2)cc1 [Cpd 341] | – | 0.788 | EC50 [3, 7]: 0.041 µM; inhibition at 10 µM [4]: 0%
– | – | COc1ccc(Oc2nc(-c3cncc(C#N)c3)ncc2N2CCNC[C@@H]2C)cc1 [Cpd 345] | 0.989 | 1.089 | EC50 [3, 7]: 0.001 µM; EC50 [4]: 1930 nM; inhibition at 10 µM [4]: 0%
– | – | COc1ccc(Oc2nc(-c3cncc(SC)c3)ncc2N2CCCNCC2)cc1 [Cpd 347] | – | 0.898 | EC50 [3, 7]: 0.069 µM; inhibition at 10 µM [4]: -0.404%
– | – | COc1ccc(Oc2nc(-c3cncc(OC)c3)ncc2N2CC[C@@H](N)C2)cc1 [Cpd 349] | – | 0.929 | EC50 [3, 7]: 0.082 µM; inhibition at 10 µM [4]: 0%

SMILES | Ki [1, 6] | EC50 [3, 8] | GTPγS δ-RelEfficacy @200 nM [3] | GTPγS δ-opioid receptor Rel Efficacy [3] | further results
COc1ccc(Oc2nc(-c3cncnc3)ncc2NCC2COCCN2)cc1 (racemic) [Cpd 278] | 1.64 nM | – | 0.263 | – | Ki [2]: 999 nM
N#Cc1cccc(Oc2nc(-c3cccnc3)ncc2NC[C@@H]2CCCN2)c1 [Cpd 135, 3-{2-Pyridin-3-yl-5-[(pyrrolidin-2-(S)-ylmethyl)-amino]-pyrimidin-4-yloxy}-benzonitrile] | – | 1.38 µM | – | – | Ki [1]: 2 nM
O=C(Nc1ccc(Oc2nc(-c3cccnc3)ncc2NC[C@@H]2CCCN2)cc1)C1CC1 [Cpd 138, Cyclopropanecarboxylic acid (4-{2-pyridin-3-yl-5-[(pyrrolidin-2-(S)-ylmethyl)-amino]-pyrimidin-4-yloxy}-phenyl)-amide] | – | 1.34 µM | – | – | Ki [1]: 4 nM
COc1ccc(Oc2nc(-c3cc(F)cc(C#N)c3)ncc2NC[C@@H]2CCCN2)cc1 [Cpd 142] | 0.2 nM | 0.029 µM | 0.931 | 1.006 | –
Oc1ccc(Oc2nc(-c3cncnc3)ncc2NC[C@@H]2CCCN2)cc1 [Cpd 156, 4-{5-[(Pyrrolidin-2-(S)-ylmethyl)-amino]-[2,5]bipyrimidinyl-4-yloxy}-phenol] | – | 0.177 µM | – | – | Ki [1]: 1 nM
COc1ccc(Oc2nc(-c3cncc(F)c3)ncc2NC[C@H]2COCCN2)cc1 [Cpd 281] | 1 nM | – | 0.221 | – | –
COc1ccc(Oc2nc(-c3cccnc3)ncc2N2CCNC(C)(C)C2)cc1 [Cpd 355] | – | 0.022 µM | – | 1.002 | GTPγS μ-opioid receptor % Inh @10 μM ([4]; CHO-hMOR cell membranes): 0.000%; EC50 ([4]; CHO-hMOR cell membranes, read-out: GTPγS μ-opioid receptor EC50): 243 nM
